# Columns and labels:
# SC5b-9 = assay: In vitro complement activation in human serum, SC5b-9 ELISA; type: biochemical; settings: for C activation (serum SC5b-9), result in words: human sera, Table 1
# Experimental: Non-anticoagulated blood was drawn from healthy volunteers and from cancer patients according to protocols approved, as additions to existing protocols, by the Walter Reed Army Medical Center Human Use Committee, and by the University of Southern California (USC)/Norris Cancer Center Institutional Review Board and General Clinical Research Center. […] Blood was allowed to clot at room temperature and the serum was stored at −80° C. It was thawed and kept at 4° C. before incubation with the test agents.
# To assess C activation in vitro we measured the drug-induced rise of two C split products, SC5b-9 and Bb, using ELISA kits from Quidel Corp. (San Diego, Calif.). SC5b-9 is the soluble, S-protein-bound form of the terminal complex, a sensitive measure of C5a formation through both the classical and the alternative pathways, while Bb is the proteolytically active fragment of factor B, a specific marker of C activation through the alternative pathway. The test agents were incubated with the serum in a shaking water bath (80 rpm cycle) for 30 to 60 min at 37° C. at an activator to serum volume ratio of 1:5 or 1:10. […] The reaction was stopped by adding 20 volume of the specimen diluent from the ELISA kits containing PBS, 0.05% Tween-20, protein stabilizers, and 0.01% Thimerosal.
# [1] = system: liposome-induced pulmonary hypertension; assay: Inhibition of liposome-induced pulmonary hypertension (PAP) in pigs; type: in vivo, pig
# Experimental: FIG. 12. The effects of complement inhibitors and indomethacin on liposome-induced pulmonary hypertension. Panel A presents the standard liposome-induced changes in PAP before and at different times after the administration of the indicated inhibitors, each in a different animal. […] Inhibitors were injected in the jugular vein in 4-8 mL PBS, at the following doses: GS1, 1.6 mg/kg (squares), sCR1, 0.2 mg/kg (open circles) and 2 mg/kg (closed circles); indomethacin, 5 mg/kg (triangles).
# Experiments were-performed in accordance with the guidelines of the Committee on Animal Care of the Uniformed Services University of the Health Sciences and with the Guide for the Care and the Use of Laboratory Animals (Department of Health and Human Services, Publication No. [NIH] 86-23). Female Yorkshire swine (32-48 kg) were sedated with i.m. ketamine and anesthetized with halothane by nose cone. The trachea was intubated and anesthesia was maintained with halothane (1%). […] Systemic vascular resistance (SVR) and pulmonary vascular resistance (PVR) were calculated from SAP, PAP, CO, CVP and LVEDP, using standard formulas (Fontana, J. L. et al., 1995, Anesth. Analg. 80, 219) Blood pressure values and leads II and V5 of the electrocardiogram (ECG) were obtained continually.
# miniature pigs = settings: previous study; cited from earlier work
# [2] = system: Cremophor EL-induced complement activation; assay: Inhibition of Cremophor EL-induced complement activation (SC5b-9) in human serum; type: biochemical; settings: Cremophor EL 8.8 mg/ml, serum of a healthy subject
# Experimental: FIG. 4. Inhibition of Cremophor EL-induced complement activation by soluble complement receptor type 1 (sCR1): dose activity relationship. […] Serum levels of SC5b-9 were measured by enzyme-linked immunoasorbent assay, as described. Bars=mean values with 95% confidence interval, obtained from triplicate wells. The rise of SC5b-9 relative to PBS was statistically significant at *, P=0.0006 and **, P=0.002 (Student's two-sample t test, two-tailed).
# To assess C activation in vitro we measured the drug-induced rise of two C split products, SC5b-9 and Bb, using ELISA kits from Quidel Corp. (San Diego, Calif.). SC5b-9 is the soluble, S-protein-bound form of the terminal complex, a sensitive measure of C5a formation through both the classical and the alternative pathways, while Bb is the proteolytically active fragment of factor B, a specific marker of C activation through the alternative pathway. The test agents were incubated with the serum in a shaking water bath (80 rpm cycle) for 30 to 60 min at 37° C. at an activator to serum volume ratio of 1:5 or 1:10. Typically, 5 μl of drug (stock) was added to 45 μl of serum placed in Eppendorf tubes. The reaction was stopped by adding 20 volume of the specimen diluent from the ELISA kits containing PBS, 0.05% Tween-20, protein stabilizers, and 0.01% Thimerosal.
# [3] = pigs; cited from earlier work
# [4] = system: LEH-induced complement activation; settings: human serum, in vitro, cited from earlier work
# [5] = system: C-mediated harmful effects; settings: in vitro; cited from earlier work
compound,measurement,setting,value
"CC(=O)O[C@H]1C(=O)[C@@]2(C)[C@H]([C@H](OC(=O)c3ccccc3)[C@]3(O)C[C@H](OC(=O)[C@H](O)[C@@H](NC(=O)c4ccccc4)c4ccccc4)C(C)=C1C3(C)C)[C@]1(OC(C)=O)CO[C@@H]1C[C@@H]2O [Paclitaxel, paclitaxel]",SC5b-9,"SC5b-9; paclitaxel 100 ug/mL, bar marked * in FIG. 2 (with 95% confidence interval)",67.4 (65.8-69) ug/ml
N.N.O=C([O-])C1(C(=O)[O-])CCC1.[Pt+2] [carboplatin],"C activation (serum SC5b-9), result in words",SC5b-9,did not cause C activation
same,SC5b-9,"SC5b-9; subject 2 (healthy donor), dose 100 μg/ml, no ethanol",3.4 µg/mL
same,SC5b-9,"SC5b-9; subject 4 (cancer patient), dose 100 μg/ml, no ethanol",5.5 µg/mL
CC(=O)O[C@@]12CO[C@@H]1C[C@H](O)[C@@]1(C)C(=O)[C@H](O)C3=C(C)[C@@H](OC(=O)[C@H](O)[C@@H](NC(=O)OC(C)(C)C)c4ccccc4)C[C@@](O)([C@@H](OC(=O)c4ccccc4)[C@H]21)C3(C)C [docetaxel],"C activation (serum SC5b-9), result in words",SC5b-9,caused C activation only when the drug (formulated in Tween-80) was added to human serum together with ethanol
same,SC5b-9,"SC5b-9; subject 1 (healthy donor), dose 100 μg/ml (H2O), 30 min 37° C.",1.8 µg/mL
same,SC5b-9,"SC5b-9; subject 1 (healthy donor), dose 100 μg/ml with 0.8% ethanol, 30 min 37° C.",16.0 µg/mL
same,SC5b-9,"SC5b-9; subject 2 (healthy donor), dose 100 μg/ml with 0.8% ethanol",28.6 µg/mL
same,SC5b-9,"SC5b-9; subject 3 (healthy donor), dose 100 μg/ml (H2O)",0.2 µg/mL
same,SC5b-9,"SC5b-9; subject 4 (cancer patient), dose 100 μg/ml with 0.8% ethanol",38.5 µg/mL
CCO [ethanol],"C activation (serum SC5b-9), result in words",SC5b-9,did not cause significant elevation of serum SC5b-9
same,SC5b-9,"SC5b-9; subject 2 (healthy donor), dose 0.8% (final serum concentration)",3.2 µg/mL
same,SC5b-9,"SC5b-9; subject 3 (healthy donor), dose 0.4% (final serum concentration)",0.5 µg/mL
same,SC5b-9,"SC5b-9; subject 4 (cancer patient), dose 0.8% (final serum concentration)",6.6 µg/mL
COc1ccc2c(c1)c(CC(=O)O)c(C)n2C(=O)c1ccc(Cl)cc1 [indomethacin],effect on pulmonary reaction to 5 mg liposome boluses,"[1]; 5 mg/kg i.v., all tested pigs",completely suppressed
same,rise of PVR after liposomes with indomethacin treatment,miniature pigs,20%
sCR1: Recombinant soluble complement receptor type 1,dose providing complete suppression of Cremophor EL/ethanol-induced increase of SC5b-9,[2],1.8 µg/mL
same,doses significantly inhibiting Cremophor EL/ethanol-induced increase of SC5b-9,[2],> 0.6 µg/mL
same,inhibition of PAP response to 5 mg liposome boluses,"[1]; 0.2 and 2 mg/kg i.v. (in 2-2 pigs), maximal inhibition",30-100%
same,plasma clearance α-phase t1/2,[3],8.3 min
same,plasma clearance β-phase t1/2,[3],6.05 h
same,share of the drug clearing slowly,[3],31%
same,dose providing complete suppression of SC5b-9 formation,[4]; LEH-induced,20 µg/mL
same,doses significantly inhibiting LEH-induced complement activation,[4],> 0.8 µg/mL
same,concentration range of potent inhibition of C-mediated harmful effects,[5],10 to 40 µg/mL

# Source: patent US7419683B2, “Method of inhibiting side effects of pharmaceutical compositions containing amphiphilic vehicles or drug carrier molecules” (United States of America as Represented by the Secretary of …, priority 1998, dated 2008)
